In patent US7220775B2, “Compound useful for the treatment of neuropathic pain” (H. Lundbeck A/S, priority 2002, dated 2007):

What was measured:
[1] = system: NE transporter (rNE Uptk); assay: Binding at native NE transporter; parameters: species or system rat; conditions: Table 8
Protocol: (§1) The binding properties of the compounds of the present invention were evaluated at one or more cloned receptors or native, tissue-derived transporters, using protocols described below.
(§2) The methods to determine binding affinity at native transporters are described in the following publications: 5HT transporter and NE transporter (Owens et al., 1997), and DA transporter (Javitch et al, 1984).

[2] = target: NE transporter (rNE Uptk) (Rattus norvegicus, UniProt Q9WTR4); assay: Binding at native NE transporter; conditions: Table 7, native transporter
Protocol: as §1, §2

human GAL2 receptor = target: T1, human GAL2 receptor (Homo sapiens, UniProt O43603); assay: Radioligand binding at cloned human GAL2 receptor; conditions: Table 2, pyrimidines, read-out: Ki (nM) GalR2
T1 construct: expressed in transfected cells
T1 sequence (O43603 1-387): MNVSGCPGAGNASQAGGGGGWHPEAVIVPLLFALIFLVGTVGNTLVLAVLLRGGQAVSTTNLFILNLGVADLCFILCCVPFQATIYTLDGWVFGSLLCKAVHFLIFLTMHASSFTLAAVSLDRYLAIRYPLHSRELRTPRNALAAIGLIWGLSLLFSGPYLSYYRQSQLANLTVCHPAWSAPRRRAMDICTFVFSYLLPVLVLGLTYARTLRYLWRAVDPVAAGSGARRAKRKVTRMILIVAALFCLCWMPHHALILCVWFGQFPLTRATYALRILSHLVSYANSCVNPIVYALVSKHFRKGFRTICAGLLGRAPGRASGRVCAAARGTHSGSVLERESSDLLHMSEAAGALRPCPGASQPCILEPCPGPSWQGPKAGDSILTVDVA
Protocol: (§3) The present invention provides for a method of determining the binding affinity of a GAL3 antagonist, wherein the GAL3 antagonist is dissolved in a “suitable solvent”. A “suitable solvent” means one which permits the measurement of binding affinity of the GAL3 antagonist to the human GAL3 receptor at concentrations less than 1 μM, preferably less than 100 nM. Examples of solvents include, but are not limited to, DMSO, ethanol, N,N-dimethylacetamide, or water. For indolones, the preferred solvent is 3% DMSO (final concentration in the assay). For pyrimidines, the preferred solvent is 1% ethanol/0.09% polypuronic acid F-127 (final concentration in the assay). For any other type of compounds, the preferred solvent is the solvent which permits the measurement of binding affinity of a GAL3 antagonist at the lowest concentration. Once a suitable solvent is ascertained for the binding assay of the human GAL3 receptor, the same solvent is used in assays to determine the binding affinity for instance, at the GAL1 receptor.
(§4) LM(tk−) cells were stably transfected with the human GAL1 or GAL3 receptor. CHO cells were stably transfected with the human GAL2 receptor.
(§5) cDNAs for the human and rat GAL1, and human and rat GAL3 receptors were transfected with a G-418 resistant gene into the mouse fibroblast LM(tk−) cell line by a calcium phosphate transfection method (Cullen, 1987). Stably transfected cells were selected with G-418. Human and rat GAL2 receptors were similarly transfected into CHO cells.
Membranes were harvested from stably transfected LM(tk−) cells. Adherent cells were washed twice in ice-cold phosphate buffered saline (138 mM NaCl, 8.1 mM Na2HPO4, […] KCl, 1.2 mM KH2PO4, 0.9 mM CaCl2, 0.5 mM MgCl2, pH 7.4) and lysed by sonication in ice-cold sonication buffer (20 mM Tris-HCl, 5 mM EDTA, pH 7.7). […] Protein concentration was measured by the Bradford method (Bradford, 1976) using Pio-Rad Reagent, with bovine serum albumin as a standard. […]
(§6) Binding data were analyzed using nonlinear regression and statistical techniques available in the GraphPAD Prism package (San, Diego, Calif.). […]

human GAL1 receptor = target: T2, human GAL1 receptor (Homo sapiens, UniProt P47211); assay: Radioligand binding at cloned human GAL1 receptor; conditions: Table 2, pyrimidines, read-out: Ki (nM) GalR1
T2 construct: expressed in transfected cells
T2 sequence (P47211 1-349): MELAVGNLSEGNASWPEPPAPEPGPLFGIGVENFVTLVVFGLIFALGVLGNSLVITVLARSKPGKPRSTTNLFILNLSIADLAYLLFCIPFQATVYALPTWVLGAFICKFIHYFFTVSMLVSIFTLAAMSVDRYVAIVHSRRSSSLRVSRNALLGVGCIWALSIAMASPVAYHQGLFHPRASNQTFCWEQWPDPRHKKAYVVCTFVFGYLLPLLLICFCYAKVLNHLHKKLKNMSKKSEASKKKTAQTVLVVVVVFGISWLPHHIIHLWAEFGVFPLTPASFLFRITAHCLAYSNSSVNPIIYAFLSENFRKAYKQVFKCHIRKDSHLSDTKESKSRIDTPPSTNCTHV
Protocol: as §3, §4, §5
Membranes were harvested from stably transfected LM(tk−) cells. Adherent cells were washed twice in ice-cold phosphate buffered saline (138 mM NaCl, 8.1 mM Na2HPO4, […] KCl, 1.2 mM KH2PO4, 0.9 mM CaCl2, 0.5 mM MgCl2, pH 7.4) and lysed by sonication in ice-cold sonication buffer (20 mM Tris-HCl, 5 mM EDTA, pH 7.7). Large particles and debris were cleared by low speed centrifugation (200×g, 5 min, 4° C.). Membranes were collected from the supernatant fraction by centrifugation (32,000×g, 18 min, 4° C.), washed with ice-cold hypotonic buffer, and collected again by centrifugation (32,000×g, 18 min, 4° C.). The final membrane pellet was resuspended by sonication into a small volume of ice-cold binding buffer (˜1 ml for every 5 plates: 10 mM NaCl, […] HEPES, 0.22 mM KH2PO4, 1.26 mM Cal2, 0.81 mM MgSO4, pH 7.4). Protein concentration was measured by the Bradford method (Bradford, 1976) using Pio-Rad Reagent, with bovine serum albumin as a standard. Membranes were held on ice for up to one hour and used fresh, or flash frozen and stored in liquid nitrogen. Membranes were prepared similarly from CHO cells. […]
as §6

[3] = system: neuropathic rats (chronic constriction nerve injury); assay: Chronic constriction nerve injury model of neuropathic pain: thermal hyperalgesia (Thermal Plantar Test); type: in vivo, rat; conditions: 10 mg/kg i.p.
Protocol: (§7) The aim of this study was to assess the potential analgesic effects of Example 92 following intraperitoneal administration at the doses of 3, 10 and 30 mg/kg, respectively, in an animal model of neuropathic pain. A peripheral mononeuropathy was induced in the right hind limb of rats following a chronic constriction nerve injury (Bennett and Xie, 1988), and the development of mechanical allodynia and thermal hyperalgesia was monitored using established behavioral tests (Attal, N., et al., 1990; Hargreaves, K., et al., 1988).
(§8) Male Sprague-Dawley rats within the weight range of 200-225 g, and approximate age 7-9 weeks, were allowed to acclimate for a minimum of 6 days prior to the start of the behavioral testing.
(§9) All rats underwent a chronic constriction nerve injury, and of these, those that successfully developed allodynia and hyperalgesia were allocated to treatment groups.
(§10) There were 5 separate treatment groups (with a minimum of 10 rats per group). The treatment groups were as follows: • Group C received Morphine at 10 mg/kg (n=10) • Group D received Vehicle for Example 92* at 1 ml/kg (n=10) (* 100% DMSO) • Group E received Example 92 at 30 mg/kg (n=10) • Group F received Example 92 at 3 mg/kg (n=10) • Group G received Example 92 at 10 mg/kg (n=10)
(§11) The dose volume for all treatments was 1 ml/kg. Each rat received a single i.p. dose of the test substance, reference substance or vehicle on Day 12 PO. Test substance and vehicle dosing solutions were encoded (C-G) so that the observers were unaware of the identity of the treatment groups.
(§12) The behavioral tests (Von Frey filament and Thermal Plantar Tests—see below) were performed on all rats on 3 separate days prior to […], to establish baseline values. The pre-surgery baseline values were calculated as the mean of the last 2 days testing (the data from the first day of testing were not included as this was classed as part of the acclimating period). The sequence of tests was always mechanical allodynia (Von Frey Test) followed by thermal hyperalgesia (Thermal Plantar Test), with a minimum 5 min period allowed between the 2 tests.
Each rat was placed in a clear plastic chamber with a glass floor and allowed a short period to acclimatize to the new environment (approximately 5 min.). The animals were then challenged with a radiant Infrared (IR) heat source, directed at the plantar surface of the hind paw from below, and the withdrawal latency of both the ipsilateral and contralateral hind paws was evaluated. The infrared intensity was set at IR50 and the maximum length of exposure to the IR source was 18 s. Non-responding animals were allocated a withdrawal latency of 18 s.
The animals were surgically prepared over 5 days. […]

[4] = system: neuropathic rats (chronic constriction nerve injury); assay: Chronic constriction nerve injury model of neuropathic pain: mechanical allodynia (Von Frey filaments); type: in vivo, rat; conditions: 10 mg/kg i.p.
Protocol: as §7, §8, §9, §10, §11, §12
Each animal was placed in a wire mesh cage and a series of Von Frey filaments (ranging from filament handle number 3.61 to 6.10) applied to the plantar surface of the hind paw, from below. The filaments were applied in ascending order (starting with the weakest force) and the withdrawal threshold for both the ipsilateral and contralateral hind paws was evaluated. Each filament was indented on the plantar surface of the foot to the point where it just started to bend, and this was repeated approximately 8-10 times per filament at a frequency of approximately 1 Hz. The withdrawal threshold was defined as the lowest force of two or more consecutive Von Frey filaments to elicit a reflex withdrawal response.
The animals were surgically prepared over 5 days. Each rat was anaesthetized with sodium pentobarbitone (60 mg/ml; 0.6 ml/kg dose, intraperitonealy; batch number 00230; expiry date 22 May 3) and then supplemented as necessary with isoflurane (1-3% in oxygen). The surface around the incision site was shaved and then sterilized with surgical spirit. Under aseptic conditions the right sciatic nerve was exposed by blunt dissection at mid-thigh level and approximately 1 cm of nerve was freed of adhering connective tissue. Four chromic cat gut (4.0) ligatures, spaced at approximately 1 mm inzervals, were then tied so as to barely constrict the nerve (as viewed under 40× magnification) to induce a peripheral mononeuropathy in the right hind limb. The overlying muscle and skin were then closed in layers using suture material, and the anesthesia discontinued. On recovery from anesthesia, the rats were re-housed with their cage mates on soft padded bedding overnight (to reduce the risk of infection) and subsequently on sawdust bedding following full recovery. The animals were allowed 4 full days to recover before the behavioral testing was recommenced. […]

Cc1ccc(Nc2cc(N3CCCCC3)nc(N(C)CCc3c[nH]c4ccccc34)n2)cc1 [Example 11]
selectivity ratio rNE Uptk (Ki rNE Uptk / Ki hGAL3) [1]: >100 | Ki [2]: > 50 µM

CN(CCc1c[nH]c2ccccc12)c1nc(Nc2ccc(F)c(F)c2)cc(N2CCCCC2)n1 [Example 15]
selectivity ratio rNE Uptk (Ki rNE Uptk / Ki hGAL3) [1]: >100 | Ki [2]: > 50 µM

COc1cccc(Nc2cc(N3CCCCC3)nc(N(C)CCc3c[nH]c4ccccc34)n2)c1 [Example 17]
selectivity ratio rNE Uptk (Ki rNE Uptk / Ki hGAL3) [1]: >100 | Ki [2]: 18.3 µM

Cc1ccc(Nc2cc(N3CCCCC3)nc(N(C)CCc3ccccc3)n2)cc1 [Example 22]
selectivity ratio rNE Uptk (Ki rNE Uptk / Ki hGAL3) [1]: >100 | Ki [2]: 13.1 µM

Cc1ccc(Nc2cc(N3CCCCC3)nc(N3CCN(c4ncccc4C(F)(F)F)CC3)n2)cc1 [Example 34]
selectivity ratio rNE Uptk (Ki rNE Uptk / Ki hGAL3) [1]: >100 | Ki [2]: > 50 µM

Cc1ccccc1Nc1cc(N(C)C)nc(Nc2ccccc2)n1 [Example 51]
Ki (human GAL2 receptor): > 5000 nM | Ki (human GAL1 receptor): > 5000 nM

CN(C)c1cc(Nc2ccc(Cl)c(Cl)c2)nc(Nc2ccccc2)n1 [Example 60]
Ki [2]: 46.1 µM

C[C@H]1CC2CC([C@@H]1Nc1cc(N(C)C)nc(Nc3ccccc3)n1)C2(C)C (stereo partly shown) [Example 71]
Ki (human GAL1 receptor): > 5000 nM

Cc1ccc(Nc2cc(N(C)C)nc(N(C)CCc3c[nH]c4ccccc34)n2)cc1 [Example 77]
selectivity ratio rNE Uptk (Ki rNE Uptk / Ki hGAL3) [1]: >100 | Ki [2]: 28.1 µM

O=C1C(=Nc2cccc(Cl)c2)c2ccccc2N1c1ccccc1 [Example 94, 3-[(3-CHLOROPHENYL)IMINO]-1-PHENYL-1,3-DIHYDRO-2H-INDOL-2-ONE]
selectivity ratio rNE Uptk (Ki rNE Uptk / Ki hGAL3) [1]: >30 | Ki [2]: 4.88 µM

O=C1C(=Nc2ccc(C(F)(F)F)cc2)c2ccccc2N1c1ccccc1 [Example 95, 1-PHENYL-3-[[4-(TRIFLUOROMETHYL)PHENYL]IMINO]-1,3-DIHYDRO-2H-INDOL-2-ONE]
selectivity ratio rNE Uptk (Ki rNE Uptk / Ki hGAL3) [1]: >100 | Ki [2]: 6.1 µM

O=C1C(=Nc2ccc(Cl)cc2)c2ccccc2N1c1ccccc1 [Example 97, 3-[(4-CHLOROPHENYL)IMINO]-1-PHENYL-1,3-DIHYDRO-2H-INDOL-2-ONE]
selectivity ratio rNE Uptk (Ki rNE Uptk / Ki hGAL3) [1]: >30 | Ki [2]: 4.41 µM

O=C1C(=Nc2ccc(Br)cc2)c2ccccc2N1c1ccccc1 [Example 98, 3-[(4-BROMOPHENYL)IMINO]-1-PHENYL-1,3-DIHYDRO-2H-INDOL-2-ONE]
selectivity ratio rNE Uptk (Ki rNE Uptk / Ki hGAL3) [1]: >100 | Ki [2]: 5.5 µM

CN1CC[C@]23c4c5ccc(O)c4O[C@H]2[C@@H](O)C=C[C@H]3[C@H]1C5 [morphine, reference compound]
effect on withdrawal latency of the nerve-injured hind paw to the thermal plantar device ([3]; approx. 40 and 100 min PD): significantly increased | withdrawal latency to a noxious heat stimulus, nerve-injured and contralateral hind paws ([3]; up to 100 min PD): significant increase | contralateral paw effects (Von Frey) ([4]; 30 and 90 min): significant contralateral effects | effect on withdrawal threshold of the nerve-injured hind paw (Von Frey) ([4]; up to 90 min PD): significantly increased
